*1 amine or outer side, *2 acyl side, *3 side chain or, on linkers, in order; H or OH if unused. Where a SMILES comes first, the peptide text is derived from it. Side-chain parts run from the residue outwards. [ ]: non-standard residue; d: D form. The star is where a group is joined. C20 diacid = O=C(O)CCCCCCCCCCCCCCCCCCC(=O)*; αMePhe(2-F) = C[C@](N)(Cc1ccccc1F)C(=O)O; γGlu = O=C(O)[C@H](CCC(=O)[*:2])N[*:1]; AEEA = NCCOCCOCC(=O)O; Aib = CC(C)(N)C(=O)O
Biological target: T1, human GIP-R (Homo sapiens, UniProt P48546)
T1 construct: expressed in transfected cells; host or cells: HEK-293 clonal cell line
T1 sequence (P48546 22-466): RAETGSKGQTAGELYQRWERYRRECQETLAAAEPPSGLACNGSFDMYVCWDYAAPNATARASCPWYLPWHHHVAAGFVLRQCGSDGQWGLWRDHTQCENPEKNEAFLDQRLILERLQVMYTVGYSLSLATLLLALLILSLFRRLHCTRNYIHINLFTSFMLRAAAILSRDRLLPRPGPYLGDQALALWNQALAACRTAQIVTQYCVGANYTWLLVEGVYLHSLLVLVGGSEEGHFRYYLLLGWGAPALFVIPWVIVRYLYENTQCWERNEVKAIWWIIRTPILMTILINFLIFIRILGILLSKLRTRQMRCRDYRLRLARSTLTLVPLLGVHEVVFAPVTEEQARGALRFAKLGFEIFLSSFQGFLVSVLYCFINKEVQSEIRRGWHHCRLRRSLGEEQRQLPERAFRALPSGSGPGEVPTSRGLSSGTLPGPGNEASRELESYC
Assay: cAMP functional activity in GIP-R-expressing HEK-293 cells, FBS and BSA
Format: cell-based
Conditions: in the presence of FBS and BSA; read-out: cAMP EC50, nM (SEM, n) GIPR

Structure (SMILES) | EC50 [nM]
CC[C@H](C)[C@H](NC(=O)[C@H](Cc1ccccc1)NC(=O)[C@H](C)NC(=O)C(C)(C)NC(=O)[C@H](CCC(N)=O)NC(=O)[C@H](C)NC(=O)[C@H](CCCCNC(=O)COCCOCCNC(=O)COCCOCCNC(=O)CC[C@H](NC(=O)CCCCCCCCCCCCCCCCCCC(=O)O)C(=O)O)NC(=O)[C@H](CCCCN)NC(=O)[C@H](CC(=O)O)NC(=O)[C@H](CC(C)C)NC(=O)[C@H](CC(C)C)NC(=O)[C@@H](NC(=O)[C@H](CO)NC(=O)[C@H](Cc1ccc(O)cc1)NC(=O)[C@H](CC(=O)O)NC(=O)[C@H](CO)NC(=O)[C@@H](NC(=O)[C@](C)(Cc1ccccc1F)NC(=O)[C@@H](NC(=O)CNC(=O)[C@H](Cc1c[nH]cn1)NC(=O)C(C)(C)NC(=O)[C@@H](N)Cc1ccc(O)cc1)[C@@H](C)O)[C@@H](C)O)[C@@H](C)CC)C(=O)N[C@@H](CCC(=O)O)C(=O)N[C@@H](Cc1ccc(O)cc1)C(=O)N[C@@H](CC(C)C)C(=O)N[C@@H](CC(C)C)C(=O)N[C@@H](CCC(=O)O)C(=O)NCC(=O)NCC(=O)N1CCC[C@H]1C(=O)N[C@@H](CO)C(=O)N[C@@H](CO)C(=O)NCC(=O)N[C@@H](C)C(=O)N1CCC[C@H]1C(=O)N1CCC[C@H]1C(=O)N1CCC[C@H]1C(=O)N[C@@H](CO)C(N)=O [Example 3] (H-Y[Aib]HGT[αMePhe(2-F)]TSDYSILLDKK([AEEA-AEEA-γGlu-C20 diacid])AQ[Aib]AFIEYLLEGGPSSGAPPPS-NH2) | 1.37
CC[C@H](C)[C@H](NC(=O)[C@H](Cc1ccccc1)NC(=O)[C@H](C)NC(=O)C(C)(C)NC(=O)[C@H](CCC(N)=O)NC(=O)[C@H](C)NC(=O)[C@H](CCCCNC(=O)COCCOCCNC(=O)CC[C@H](NC(=O)CCCCCCCCCCCCCCCCCCC(=O)O)C(=O)O)NC(=O)[C@H](CCCCN)NC(=O)[C@H](CC(=O)O)NC(=O)[C@H](CC(C)C)NC(=O)[C@H](CC(C)C)NC(=O)[C@@H](NC(=O)[C@H](CO)NC(=O)[C@H](Cc1ccc(O)cc1)NC(=O)[C@H](CC(=O)O)NC(=O)[C@H](CO)NC(=O)[C@@H](NC(=O)[C@](C)(Cc1ccccc1F)NC(=O)[C@@H](NC(=O)CNC(=O)[C@H](CCC(N)=O)NC(=O)C(C)(C)NC(=O)[C@@H](N)Cc1ccc(O)cc1)[C@@H](C)O)[C@@H](C)O)[C@@H](C)CC)C(=O)N[C@@H](CCC(=O)O)C(=O)N[C@@H](Cc1ccc(O)cc1)C(=O)N[C@@H](CC(C)C)C(=O)N[C@@H](CC(C)C)C(=O)N[C@@H](CCC(=O)O)C(=O)NCC(=O)NCC(=O)N1CCC[C@H]1C(=O)N[C@@H](CO)C(=O)N[C@@H](CO)C(=O)NCC(=O)N[C@@H](C)C(=O)N1CCC[C@H]1C(=O)N1CCC[C@H]1C(=O)N1CCC[C@H]1C(=O)N[C@@H](CO)C(N)=O [Example 4] | 1.37
